Laboratory results published in patent US20230285380A1, “DUAL TREATMENT OF MIGRAINE” (priority 2021, published 2023).

Tests used:
[1] = BHV3000-305 study: adverse events and liver safety on double-blind treatment
[2] = test system: patients with moderate to severe intensity migraine; assay: large open-label Phase 2 trial of rimegepant; format: in vivo, human
Description: The goal of our strategy is to deliver one medication to address patients' needs for treating their migraines.

[3] = test system: patients with episodic and chronic migraine; assay: BHV3000-305 Phase 2/3 randomized, double-blind, placebo-controlled study of rimegepant in migraine prevention (NCT03732638): efficacy; format: in vivo, human
Method: Clinical Trial—BHV3000-305: A Phase ⅔, Randomized, Double-blind, Placebo-controlled Study to Evaluate the Efficacy and Safety of Rimegepant in Migraine Prevention (ClinicalTrials.gov Identifier: NCT03732638).
A phase ⅔ clinical study was conducted with 1629 participants, as follows.
The purpose of this is study is to compare the efficacy of BHV-3000 (rimegepant) to placebo as a preventive treatment for migraine, as measured by the reduction in the number of migraine days per month.
Study Design • Study Type: Interventional (Clinical Trial) • Actual Enrollment: 1629 participants • Allocation: Randomized • Intervention Model: Parallel Assignment • Masking: Triple (Participant, Care Provider, Investigator) • Primary Purpose: Prevention • Official Title: A Phase ⅔, Randomized, Double-blind, Placebo-controlled Study to Evaluate the Efficacy and Safety of Rimegepant in Migraine Prevention • Actual Study Start Date: Nov. 14, 2018 • Actual Primary Completion Date: Dec. 10, 2019 • Estimated Study Completion Jan. 30, 2021 • Date:
Primary Outcome Measures: • 1. Change from baseline in mean number of migraine days per month [Time Frame: Mean number of migraine days per month as assessed over 3 months (12 weeks)] Change from baseline in mean number of migraine days per month as measured over the 12-week double-blind phase of the study.
Secondary Outcome Measures: • 1. Achievement of at least a 50% reduction from baseline in mean number of moderate to severe monthly migraine days. [Time Frame: baseline to end of Week 12] Achievement of at least a 50% reduction from baseline in mean number of moderate to severe monthly migraine days over course of the double-blind treatment phase. • 2. The mean number of rescue medication days per month. [Time Frame: baseline to end of week 12 as measure per month] The mean number of rescue medication days per month over the course of the double-blind, treatment phase. Rescue medications include the rescue medications defined in this protocol. • 3. Adverse events. [Time Frame: baseline to end of Week 12] Adverse events that occur in at least 5% of treated subjects; the frequency of unique subjects with serious adverse events, adverse events leading to discontinuation and clinically significant laboratory abnormalities, as reported on case report forms. • 4. The frequency of AST or ALT elevations. [Time Frame: baseline to end of Week 12] The frequency of AST or ALT elevations >3×ULN, concurrently with bilirubin elevations >2× ULN, will be assessed by tabulating the number of unique subjects with this pairing of events. • 5. The frequency of hepatic-related adverse events and hepatic-related treatment. [Time Frame: baseline to end of Week 12] The frequency of hepatic-related adverse events and hepatic-related treatment discontinuations will be tabulated from case report forms and will be based on unique subjects reporting such events. • 6. The mean change from baseline in the MSQ role function [Time Frame: baseline to end of Week 12] The mean change from baseline in the MSQ role function—restrictive domain score at Week 12 of the double-blind treatment phase. • 7. The mean change from baseline in the MIDAS total score. [Time Frame: baseline to end of Week 12]
The mean change from baseline in the MIDAS total score at Week 12 of the double-blind treatment phase.
This pivotal study enrolled patients with both episodic and chronic migraine. The study evaluated the efficacy and safety of rimegepant 75 mg (n=370) dosed every other day for the preventive treatment of migraine in patients versus placebo (n=371) who had migraine for at least one year and 4 to 18 moderate to severe migraine attacks per month over three months prior to enrollment. During the one-month observation period, patients experienced on average 10.7 migraine days per month, with 7.4 migraine days of moderate to severe migraine during the same period.

[4] = 370 patients, rimegepant 75 mg every other day
[5] = Severity: Mild, Treated Subjects N = 370
[6] = Severity: Moderate or Severe, Treated Subjects N = 370
[7] = Severity: Moderate, Treated Subjects N = 370
[8] = Severity: Total, Treated Subjects N = 370

## N[C@@H]1c2cccnc2[C@H](OC(=O)N2CCC(n3c(=O)[nH]c4ncccc43)CC2)CC[C@H]1c1cccc(F)c1F [Rimegepant, [(5S,6S,9R)-5-amino-6-(2,3-difluorophenyl)-6,7,8,9-tetrahydro-5H-cyclohepta[b]pyridin-9-yl] 4-(2-oxo-3H-imidazo[4,5-b]pyridin-1-yl)piperidine-1-carboxylate]
[1]; [4]
  cases of ALT or AST >3×ULN and bilirubin >2×ULN: no cases
  independent liver monitoring panel assessment of ALT/AST elevations: did not determine any ALT/AST elevations to be in the categories of probably or definitely related to study drug
  safety profile: consistent with prior clinical trial experience
[1]; [5]
  Enterobiasis: 0 n
  Folliculitis: 0 n
  Oral candidiasis: 0 n
  Orchitis: 0 n
  Otitis media: 0 n
[1]; [6]
  Acute sinusitis: 0 n
  Appendicitis: 0 n
  Bacterial vaginosis: 0 n
  Herpes zoster: 0 n
  Pharyngitis streptococcal: 0 n
  Pneumonia: 0 n
  Pyelonephritis: 0 n
  Sepsis: 0 n
[1]; [7]
  Acute sinusitis: 0 n
  Appendicitis: 0 n
  Bacterial vaginosis: 0 n
  Herpes zoster: 0 n
  Pharyngitis streptococcal: 0 n
  Sepsis: 0 n
[1]; [8]
  Acute sinusitis: 0 n
  Appendicitis: 0 n
  Enterobiasis: 0 n
  Folliculitis: 0 n
  Oral candidiasis: 0 n
  Orchitis: 0 n
  Otitis media: 0 n
  Pelvic inflammatory disease: 0 n
  Pertussis: 0 n
  Pharyngitis streptococcal: 0 n
  Pneumonia: 0 n
  Pyelonephritis: 0 n
  Sepsis: 0 n
  Tooth infection: 0 n
[2]
  reduction in migraine days per month: ≤ 5.3 days
[3]; 95% CI (0.23, 6.70), P-value 0.0358
  MSQoL Restrictive Role Function Domain Score Change From Baseline at Week 12, Difference (Rimegepant − Placebo): 3.5
[3]; 95% CI (−0.6, 14.1), P-value 0.0734
  >=50% Reduction in Moderate or Severe Migraine Days per Month in Last Month, Stratified Risk Difference (Rimegepant − Placebo): 6.7
[3]; 95% CI (−0.80, 0.31), P-value 0.3868
  Rescue Medication Days per Month in Last Month, Difference (Rimegepant − Placebo): −0.2 Days per Month
[3]; 95% CI (−1.23, −0.17), P-value 0.0094
  Change From OP in Mean Number of Total Migraine Days per Month Overall, Difference (Rimegepant − Placebo): −0.7 Days per Month
[3]; 95% CI (−1.42, −0.14), P-value 0.0176, significant in hierarchical testing
  Change From OP in Mean Number of Total Migraine Days per Month in Last Month, Difference (Rimegepant − Placebo): −0.8 Days per Month
[3]; 95% CI (−1.49, −0.36), P-value 0.0013
  Change From OP in Mean Number of Total Migraine Days per Month In First Month, Difference (Rimegepant − Placebo): −0.9 Days per Month
[3]; 95% CI (−4.74, 4.51), P-value 0.9616
  MIDAS Total Score Change From Baseline at Week 12, Difference (Rimegepant − Placebo): −0.1
[3]; evaluable mITT
  >=50% Reduction From OP in Mean Number of Moderate or Severe Migraine Days per Month in Last Month, Response Rate (n/N): 167/348
[3]; evaluable mITT N = 348, 75 mg every other day, 95% CI (−4.95, −3.97)
  Primary Endpoint: Change From OP in Mean Number of Total Migraine Days per Month in Last Month, Least-squares mean: −4.5 Days per Month
[3]; evaluable mITT N = 348, 95% CI (3.29, 4.15)
  Rescue Medication Days per Month in Last Month, Least-squares mean: 3.7 Days per Month
[3]; evaluable mITT N = 348, 95% CI (−3.04, −2.17)
  Change From OP in Mean Number of Total Migraine Days per Month In First Month, Least-squares mean: −2.6 Days per Month
[3]; evaluable mITT N = 348, 95% CI (−3.94, −3.12)
  Change From OP in Mean Number of Total Migraine Days per Month Overall, Least-squares mean: −3.5 Days per Month
[3]; n 269, 95% CI (15.54, 20.56)
  MSQoL Restrictive Role Function Domain Score Change From Baseline at Week 12, Least-squares mean: 18.0
[3]; n 269, 95% CI (−15.41, −8.21)
  MIDAS Total Score Change From Baseline at Week 12, Least-squares mean: −11.8
[3]; participants not taking concomitant preventive treatment
  reduction in mean number of migraine days as compared to placebo, (4.9-3.7)/3.7*100: 32%
[3]; rimegepant 75 mg every other day, vs 3.7 day in placebo group, p=0.0176
  reduction from baseline in monthly migraine days: 4.5 days
[3]; rimegepant group n=273, vs 3.7 day in placebo group (n=269)
  reduction from baseline in monthly migraine days, participants not taking concomitant preventive treatment: 4.9 days
[3]; stratified by prophylactic migraine medication use, 95% CI (42.7, 53.2)
  >=50% Reduction From OP in Mean Number of Moderate or Severe Migraine Days per Month in Last Month, Stratified Risk: 48.0
[3]; vs 41% in the placebo group
  share of group with at least a 50% reduction from baseline in the mean number of moderate to severe migraine days per month: 48%
